Test results published in ChEMBL document CHEMBL5725348, “Benzimidazole inhibitors of the sodium channel” (2017).

Assay: Nav1.5 Assay: To assess the potential cardiac liability of compounds at an early stage in the drug discovery process, a Nav1.5 sodium channel screening assay was be performed on Molecular Device's PatchXpress™ automated electrophysiology platform. Under voltage-clamp conditions, Nav1.5 currents were recorded from HEK cells expressing the human Nav1.5 channel in the absence and presence of increasing concentrations of the test compound to obtain an IC50 value. The external recording solution contained (in mM): 90 TEACl, 50 NaCl, 1.8 CaCl, 1 MgCl2, 10 HEPES, 10 glucose, adjusted to pH 7.4 with TEA-OH and to 300 mOsm with sucrose (if necessary), while the internal patch pipette solution contained (in mM): 129 CsF, 2 MgCl2, 11 EGTA, 10 HEPES, 3 Na2ATP adjusted to pH 7.2 with CsOH and to 290 mOsm with sucrose (if necessary). Nav1.5 channel currents were evoked using a cardiac action potential waveform at 1 Hz, digitized at 31.25 kHz and low-pass filtered at 12 kHz.
Details: HEK293

| SMILES | IC50 |
| --- | --- |
| NCCCc1nc2cc(C(F)(F)F)cc(C(F)(F)F)c2[nH]1 | 7.5 µM |
| O=C1CNCCN1Cc1nc2cc(C(F)(F)F)cc(C(F)(F)F)c2[nH]1 | > 10 µM |
| FC(F)(F)c1cc(C(F)(F)F)c2nc(CC3CNC3)[nH]c2c1 | > 10 µM |
| NCCc1nc2cc(C(F)(F)F)cc(C(F)(F)F)c2[nH]1 | > 10 µM |
| CC(C)(N)C(=O)NCc1nc2cc(C(F)(F)F)cc(C(F)(F)F)c2[nH]1 | > 10 µM |
| CNCc1nc2cc(C(F)(F)F)cc(C(F)(F)F)c2[nH]1 | > 10 µM |
| CC(C)(N)Cc1nc2cc(C(F)(F)F)cc(C(F)(F)F)c2[nH]1 | 3.6 µM |
| NCC(=O)NCc1nc2cc(Cl)c(Cl)cc2[nH]1 | > 10 µM |
| NCc1nc2cc(C(F)(F)F)cc(C(F)(F)F)c2[nH]1 | > 10 µM |
| NCC(=O)NCc1nc2cc(C(F)(F)F)cc(C(F)(F)F)c2[nH]1 | > 10 µM |
| CC1(NC(=O)CN2CC(Cc3nc4c(C(F)(F)F)cc(C(F)(F)F)cc4[nH]3)C2)CCC1 | > 10 µM |
| CC(C)C[C@H](CN)Cc1nc2c(C(F)(F)F)cc(C(F)(F)F)cc2[nH]1 | > 10 µM |
| O=C1CNCCN1Cc1nc2cc(C(F)(F)F)c(C(F)(F)F)cc2[nH]1 | > 10 µM |
